The target in one experiment is T1, Recombinant human LOXL1 (Homo sapiens, UniProt Q08397).
T1 sequence (Q08397 96-574): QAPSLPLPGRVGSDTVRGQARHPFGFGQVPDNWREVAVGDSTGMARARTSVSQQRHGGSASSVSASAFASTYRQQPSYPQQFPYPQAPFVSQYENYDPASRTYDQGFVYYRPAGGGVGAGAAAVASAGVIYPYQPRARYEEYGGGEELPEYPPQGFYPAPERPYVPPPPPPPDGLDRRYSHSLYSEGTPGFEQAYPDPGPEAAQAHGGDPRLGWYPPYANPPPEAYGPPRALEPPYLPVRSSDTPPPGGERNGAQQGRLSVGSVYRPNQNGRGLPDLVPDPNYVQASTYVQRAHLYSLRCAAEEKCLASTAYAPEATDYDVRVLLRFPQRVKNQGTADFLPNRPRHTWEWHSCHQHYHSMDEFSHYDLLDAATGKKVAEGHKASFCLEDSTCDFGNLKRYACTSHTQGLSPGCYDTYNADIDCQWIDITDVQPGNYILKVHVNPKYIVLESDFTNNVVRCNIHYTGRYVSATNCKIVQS
The experiment is described as follows: Standard Amplex Red assay, rh LOXL1. The experiment is classed as biochemical. As to conditions: 30 min pre-incubation. An excerpt:
(§1) FIGURE 1 Characteristics of the activity‐based probe (ABP) PXS‐5878. (A) Chemical structure of PXS‐5878, with functional subunits denoted with different colours. The fluoroallylamine moiety (blue) was designed to interact with the lysine tyrosylquinone (LTQ) co‐factor within the lysyl oxidase active sites. An extended linker (green) was incorporated to provide optimal separation between the reactive functional group and the tag, avoiding unfavourable steric hindrance. Biotin was selected as a tag, with higher sensitivity found to be achieved using a double tag (red), resulting in PXS‐5878 as the preferred ABP. (B) Concentration‐dependent inhibition of recombinant human (rh) lysyl oxidase‐like 1‐4 (LOXL1‐4) and native bovine LOX in a standard Amplex Red assay with 30 min pre‐incubation; n = 3–4 independent experiments, standard error of mean (SEM). Native bovine LOX was used as a surrogate for human LOX as both enzymes have similar pharmacology for fluoroallylamines.[2], [9] (C) Irreversible nature of PXS‐5878 enzyme inhibition confirmed using a jump dilution assay. […]
(§2) FIGURE 2 Characteristics of PXS‐5338 and inhibition of lysyl oxidase‐like 2 (LOXL2) enzymatic activity in vitro and in vivo. […] (B) Tissue levels of PXS‐5338 measured 1 and 4 h after a single oral dose of 30 mg/kg in the rat. […]

The target of another experiment is T2, LOXL3 (Homo sapiens, UniProt P58215).
T2 sequence (P58215 26-753): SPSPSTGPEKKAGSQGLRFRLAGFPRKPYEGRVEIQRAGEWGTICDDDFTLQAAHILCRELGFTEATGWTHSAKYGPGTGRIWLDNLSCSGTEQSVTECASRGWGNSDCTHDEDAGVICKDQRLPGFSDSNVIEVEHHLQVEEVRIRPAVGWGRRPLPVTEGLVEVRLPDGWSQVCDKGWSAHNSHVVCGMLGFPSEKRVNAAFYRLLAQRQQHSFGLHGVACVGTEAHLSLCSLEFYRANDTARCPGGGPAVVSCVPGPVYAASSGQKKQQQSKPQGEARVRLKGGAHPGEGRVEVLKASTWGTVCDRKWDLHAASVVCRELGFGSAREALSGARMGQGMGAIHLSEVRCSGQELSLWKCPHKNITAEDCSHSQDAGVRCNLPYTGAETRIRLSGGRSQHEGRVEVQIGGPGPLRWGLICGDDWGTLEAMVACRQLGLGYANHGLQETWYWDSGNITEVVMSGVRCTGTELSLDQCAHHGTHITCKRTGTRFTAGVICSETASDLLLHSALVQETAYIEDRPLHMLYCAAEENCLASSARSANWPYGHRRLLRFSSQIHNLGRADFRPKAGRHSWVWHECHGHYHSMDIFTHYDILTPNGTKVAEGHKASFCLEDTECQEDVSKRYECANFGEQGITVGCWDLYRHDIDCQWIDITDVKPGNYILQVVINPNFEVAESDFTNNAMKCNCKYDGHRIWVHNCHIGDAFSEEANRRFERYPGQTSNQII
The experiment is described as follows: Standard Amplex Red assay, rh LOXL3. The experiment is classed as biochemical. To be noted: 30 min pre-incubation.
Text: as §1, §2

A word on the IC50: it is the concentration at which inhibition is half-maximal.

For the compound `CC(C)c1c(Cc2ccc(S(C)(=O)=O)nc2)c2ncccc2n1C/C(F)=C/CN` [PXS-5338], the IC50 is 2.53 µM on Recombinant human LOXL1 and 0.385 µM on LOXL3.
`NC/C=C(\F)CS(=O)(=O)c1cccc(Cn2cc(-c3cc(OCCCc4cn(CCCCC[C@@H]5SC[C@@H]6NC(=O)N[C@@H]65)nn4)cc(OCCCc4cn(CCCCC[C@@H]5SC[C@@H]6NC(=O)N[C@@H]65)nn4)c3)nn2)c1` [PXS-5878]: the IC50 worked out at 1.77 µM on Recombinant human LOXL1 and 0.973 µM on LOXL3.

Source of the values: article PMC8571951, “An activity‐based bioprobe differentiates a novel small molecule inhibitor from a LOXL2 antibody and provides renewed promise for anti‐fibrotic therapeutic strategies” (Clinical and Translational Medicine, 2021).
